Measured values taken from ChEMBL document CHEMBL2074366, “Secretion of sparfloxacin from the human intestinal Caco-2 cell line is altered by P-glycoprotein inhibitors” (Antimicrob Agents Chemother, 1998).

Molecular target: ATP-dependent translocase ABCB1 (Homo sapiens, UniProt P08183)
Test: TP_TRANSPORTER: transepithelial transport (basal to apical) in Caco-2 cells
Assay type: functional, cell-based

Chain of ATP-dependent translocase ABCB1 (P08183 whole entry): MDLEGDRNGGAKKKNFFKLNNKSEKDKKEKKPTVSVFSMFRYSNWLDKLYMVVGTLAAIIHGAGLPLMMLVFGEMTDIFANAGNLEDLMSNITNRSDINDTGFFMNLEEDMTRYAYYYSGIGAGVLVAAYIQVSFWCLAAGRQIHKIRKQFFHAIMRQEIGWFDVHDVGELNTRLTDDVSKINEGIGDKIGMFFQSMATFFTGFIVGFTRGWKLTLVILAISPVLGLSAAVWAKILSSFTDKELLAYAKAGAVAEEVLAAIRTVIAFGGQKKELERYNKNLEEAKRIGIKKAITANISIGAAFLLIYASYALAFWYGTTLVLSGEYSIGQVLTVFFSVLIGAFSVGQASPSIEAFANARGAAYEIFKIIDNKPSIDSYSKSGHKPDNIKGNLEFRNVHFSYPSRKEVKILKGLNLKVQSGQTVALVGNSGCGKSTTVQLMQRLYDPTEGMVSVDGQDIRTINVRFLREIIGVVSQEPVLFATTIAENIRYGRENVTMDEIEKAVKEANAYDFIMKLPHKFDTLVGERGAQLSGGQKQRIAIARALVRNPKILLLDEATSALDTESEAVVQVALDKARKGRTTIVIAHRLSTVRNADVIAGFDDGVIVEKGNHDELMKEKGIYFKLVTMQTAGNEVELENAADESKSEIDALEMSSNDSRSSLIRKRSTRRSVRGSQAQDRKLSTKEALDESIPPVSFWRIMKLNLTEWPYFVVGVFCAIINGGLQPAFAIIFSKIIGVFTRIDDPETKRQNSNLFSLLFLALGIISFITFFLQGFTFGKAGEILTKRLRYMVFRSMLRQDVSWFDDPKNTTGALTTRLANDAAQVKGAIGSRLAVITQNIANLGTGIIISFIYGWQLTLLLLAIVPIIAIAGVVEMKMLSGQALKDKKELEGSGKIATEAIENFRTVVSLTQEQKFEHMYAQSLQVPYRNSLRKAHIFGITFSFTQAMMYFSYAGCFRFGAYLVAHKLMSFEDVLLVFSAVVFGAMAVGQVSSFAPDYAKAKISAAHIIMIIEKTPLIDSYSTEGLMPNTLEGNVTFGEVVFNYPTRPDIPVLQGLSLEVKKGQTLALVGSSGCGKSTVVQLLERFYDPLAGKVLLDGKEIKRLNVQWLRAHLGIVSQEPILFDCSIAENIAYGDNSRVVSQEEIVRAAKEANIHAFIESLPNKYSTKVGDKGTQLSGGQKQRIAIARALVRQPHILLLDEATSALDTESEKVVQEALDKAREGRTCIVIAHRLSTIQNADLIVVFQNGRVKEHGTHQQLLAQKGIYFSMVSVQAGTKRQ

- Activity: substrate [+]
Compound: C[C@@H]1CN(c2c(F)c(N)c3c(=O)c(C(=O)O)cn(C4CC4)c3c2F)C[C@H](C)N1 [SPARFLOXACIN]
